Like-named read-outs stand apart in the source and are kept apart here.
Tests used:
[1] = test system: Triticum aestivum (spring wheat, TRZAS); assay type: in vivo; conditions: for % visual injury (Obs): alone 280 g/ha; for % visual injury (crop phytotoxicity): c1-2 Compound A 7.5/10
Description: (§1) Seeds of the desired test plant species were planted in a 90:10% v/v (volume/volume) mixture of PRO-MIX® BX (Premier Tech Horticulture, Quakertown, PA, USA) and PROFILE® GREENS GRADE™ (Profile Products LLC, Buffalo Grove, IL, USA) planting mixture, which typically has a pH of 5.2 to 6.2 and an organic matter content of at least 50 percent, in plastic pots with a surface area of 103.2 square centimeters (cm^2). […] The plants were grown for 7-36 days (d) in a greenhouse with an approximate 14-hour (h) photo-period which was maintained at about 23° C. during the day and 22° C. during the night. Nutrients and water were added on a regular basis and supplemental lighting was provided with overhead metal halide 1000-Watt lamps as necessary. The plants were employed for testing when they reached the second or third true leaf stage.
(§2) Emulsifiable concentrates of each of each pyridine carboxylate herbicide (Compound A or Compound B) were prepared at 100 grams acid equivalent per liter (g ae/L). The emulsifiable concentrates also included a safener, cloquintocet-mexyl, at 120 grams active ingredient per liter (g ai/L), unless otherwise noted below. An aliquot of each emulsifiable concentrate was placed in a 25 mL glass vial and diluted with an aqueous mixture of 1.25% (v/v) ACTIROB® B esterified rapeseed oil (Bayer Crop Science, Research Triangle Park, NC, USA) or MSO® Concentrate with LECI-TECH® methylated soybean oil (Loveland Products, Loveland, CO, USA) to obtain concentrated stock solutions at the highest application rate for each herbicide, based upon a 12 milliliter (mL) application volume at a rate of 187 liters per hectare (L/ha). The concentrated stock solutions were further diluted with an aqueous mixture of 1.25% v/v ACTIROB® B or MSO® Concentrate with LECI-TECH® to obtain stock solutions at reduced application rates for each herbicide. Spray solutions of the herbicide combinations (Compound A or Compound B plus synthetic auxin herbicide or auxin transport inhibitor) were prepared by adding weighed amounts or aliquots of the synthetic auxin herbicide or auxin transport inhibitor to the stock solutions of Compound A or Compound B to form 12-mL spray solutions in two-way combinations.
(§3) The spray solutions were applied to the plant material with an overhead Mandel track sprayer equipped with 8002E nozzles calibrated to deliver 187 L/ha over an application area of 0.503 square meters (m^2) at a spray height of 18 inches (43 centimeters (cm)) above the average plant canopy. Control plants were sprayed in the same manner with the solvent blank. All pyridine carboxylate herbicide (component a) application rates are given as “g ae/ha” and all synthetic auxin herbicide or auxin transport inhibitor (component b) application rates are given as “g ai/ha.”
(§4) The treated plants and control plants were placed in a greenhouse as described above and watered by sub-irrigation to prevent wash-off of the test compounds. After 20-22 d, the condition of the test plants as compared with that of the control plants was determined visually and scored on a scale of 0 to 100 percent where 0 corresponds to no injury and 100 corresponds to complete kill.

[2] = test system: Kochia scoparia (kochia, KCHSC); test: Greenhouse postemergence trial KCHSC; assay type: in vivo; conditions: KCHSC; for % visual injury (Obs): alone 280 g/ha
[3] = test system: Brassica napus (spring rape, BRSNN); test: Greenhouse postemergence trial BRSNN; assay type: in vivo
Description: (§5) The plants were grown for 7-36 days (d) in a greenhouse with an approximate 14-hour (h) photo-period which was maintained at about 23° C. during the day and 22° C. during the night. Nutrients and water were added on a regular basis and supplemental lighting was provided with overhead metal halide 1000-Watt lamps as necessary. The plants were employed for testing when they reached the second or third true leaf stage.
(§6) The emulsifiable concentrates also included a safener, cloquintocet-mexyl, at 120 grams active ingredient per liter (g ai/L), unless otherwise noted below.
(§7) Control plants were sprayed in the same manner with the solvent blank. All pyridine carboxylate herbicide (component a) application rates are given as “g ae/ha” and all synthetic auxin herbicide or auxin transport inhibitor (component b) application rates are given as “g ai/ha.”
as §4

[4] = test system: Viola tricolor (wild pansy, VIOTR); test: Greenhouse postemergence trial VIOTR;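 also: greenhouse plants sprayed at second to third true leaf stage, injury rated visually after 20-22 d against solvent-blank sprayed controls, 0 meaning no injury and 100 complete kill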
[5] = test system: Polygonum convolvulus (wild buckwheat, POLCO); test: Greenhouse postemergence trial POLCO; assay type: in vivo; conditions: for % visual injury (Obs): alone 280 g/ha
[6] = test system: Hordeum vulgare (spring barley, HORVS); assay type: in vivo; conditions: for % visual injury (Obs): alone 280 g/ha
[7] = test system: Viola arvensis (field violet, VIOAR); test: Greenhouse postemergence trial VIOAR; assay type: in vivo; conditions: VIOAR
[8] = test system: Triticum aestivum (winter wheat, TRZAW); test: Greenhouse postemergence crop phytotoxicity TRZAW; assay type: in vivo; conditions: TRZAW
[9] = test system: Hordeum vulgare (winter barley, HORVW); test: Greenhouse postemergence crop phytotoxicity HORVW; assay type: in vivo; conditions: HORVW
[10] = test system: Sinapis arvensis (wild mustard, SINAR); test: Greenhouse postemergence trial SINAR; assay type: in vivo; conditions: SINAR
Description: as §5, §6, §7, §4

[11] = test system: Veronica persica (bird's-eye speedwell, VERPE); test: Greenhouse postemergence trial VERPE; assay type: in vivo
[12] = test system: Veronica hederifolia (ivyleaf speedwell, VERHE); test: Greenhouse postemergence trial VERHE; assay type: in vivo; conditions: VERHE
[13] = test system: Anthemis arvensis (field chamomile, ANTAR); test: Greenhouse postemergence trial ANTAR; assay type: in vivo; conditions: ANTAR
Description: as §1, §2, §3, §4

[14] = test system: Cirsium arvense (Canadian thistle, CIRAR); test: Greenhouse postemergence trial CIRAR; assay type: in vivo
[15] = test system: Papaver rhoeas (corn poppy, PAPRH); test: Greenhouse postemergence trial PAPRH; assay type: in vivo; conditions: PAPRH
Description: as §1, §2, §3, §4

[16] = test system: Capsella bursa-pastoris (shepherd's purse, CAPBP); test: Greenhouse postemergence trial CAPBP; assay type: in vivo; conditions: CAPBP
Description: as §1, §2, §3, §4

[17] = test system: Matricaria inodora (false chamomile, MATIN); test: Greenhouse postemergence trial MATIN; assay type: in vivo; conditions: MATIN
Description: as §1, §2, §3, §4

[18] = test system: Lamium purpureum (purple deadnettle, LAMPU); test: Greenhouse postemergence trial LAMPU
Description: as §5, §6, §7, §4

[19] = test system: Brassica napus (winter rape, BRSNW); test: Greenhouse postemergence trial BRSNW; assay type: in vivo
Description: as §1, §2, §3, §4

[20] = test system: Papaver rhoeas (corn poppy), herbicide-resistant (PAPRH-R); test: Greenhouse postemergence trial PAPRH-R; assay type: in vivo; conditions: PAPRH-R
Description: as §1, §2, §3, §4

[21] = test system: Matricaria chamomilla (wild chamomile, MATCH); test: Greenhouse postemergence trial MATCH; assay type: in vivo; conditions: MATCH;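 also: greenhouse plants sprayed at second to third true leaf stage, injury rated by eye 20-22 d later versus solvent-blank controls on 0–100 scale, 0 no injury, 100 complete kill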
[22] = test system: Cyanus segetum (cornflower, CENCY); test: Greenhouse postemergence trial CENCY; assay type: in vivo; conditions: CENCY
[23] = test system: Salsola kali (Russian thistle, SASKR); test: Greenhouse postemergence trial SASKR; assay type: in vivo; conditions: SASKR;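 also: greenhouse plants sprayed at second or third true leaf stage, injury rated by eye after 20-22 d against solvent-blank controls, 0 meaning no injury, 100 complete kill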
[24] = test system: Matricaria discoidea (pineapple weed, MATMT); test: Greenhouse postemergence trial MATMT; assay type: in vivo; conditions: MATMT
[25] = test system: Chenopodium album L. (common lambsquarters, CHEAL); test: Greenhouse postemergence trial CHEAL; assay type: in vivo; conditions: for % visual injury: c1-2 Compound A 7.5/10;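 as to all read-outs here: greenhouse plants sprayed at second to third true leaf stage, injury rated by eye after 20-22 d versus solvent-blank sprayed controls, 0 = no injury, 100 = complete kill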
[26] = test system: Stellaria media (chickweed, STEME); test: Greenhouse postemergence trial STEME; assay type: in vivo; conditions: STEME
Description: as §1, §2, §3, §4

[27] = test system: Amaranthus retroflexus (pigweed, AMARE); test: Greenhouse postemergence trial AMARE; assay type: in vivo; conditions: for % visual injury: c1-2 Compound A 7.5/10;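 as to all read-outs here: Greenhouse-grown plants sprayed at second to third true leaf stage, injury rated by eye after 20-22 d versus solvent-blank sprayed controls, 0 = no injury, 100 = complete kill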
[28] = partner herbicide 560 g/ha alone
[29] = c3 2,4-D-EHE 280, c4-5 A 7.5/10 + 2,4-D-EHE 280 g/ha
[30] = c3 Quinclorac 140, c4-5 A 7.5/10 + Quinclorac 140 g/ha
[31] = Papaver rhoeas, post-emergence, Quinclorac 560 g/ha, read-out: % visual injury Obs

CNC.O=C(O)COc1ccc(Cl)cc1Cl [2,4-D DMA]
% visual injury (Obs) ([1]; TRZAS): 5% | % visual injury (Obs) [2]: 10% | % visual injury (Obs) ([3]; BRSNN, alone 280 g/ha): 83% | % visual injury (Obs) ([4]; VIOTR, alone 280 g/ha): 65% | % visual injury (Obs) ([5]; POLCO): 55% | % visual injury (Obs) ([6]; HORVS): 0%

Cc1cc(Cl)ccc1OC(C)C(=O)O (stereo not shown) [Mecoprop]
% visual injury, Obs ([7]; applied alone, 560 g/ha): 10% | % visual injury, Obs ([8]; applied alone, 560 g/ha): 0% | % visual injury, Obs ([9]; applied alone, 560 g/ha): 0% | % visual injury (Obs) ([10]; alone 280 g/ha): 80% | % visual injury, Obs ([10]; applied alone, 560 g/ha): 95% | % visual injury, Obs ([11]; VERPE, applied alone, 560 g/ha): 30% | % visual injury, Obs ([12]; applied alone, 560 g/ha): 50% | % visual injury, Obs ([13]; applied alone, 560 g/ha): 10% | % visual injury (Obs) ([1]; TRZAS): 0% | % visual injury, Obs ([1]; TRZAS, applied alone, 560 g/ha): 0% | % visual injury (Obs) [2]: 68% | % visual injury, Obs ([2]; applied alone, 560 g/ha): 80% | % visual injury (Obs) ([14]; CIRAR, alone 280 g/ha): 68% | % visual injury, Obs ([14]; CIRAR, applied alone, 560 g/ha): 70% | % visual injury, Obs ([15]; applied alone, 560 g/ha): 65% | % visual injury, Obs ([16]; applied alone, 560 g/ha): 60% | % visual injury, Obs ([17]; applied alone, 560 g/ha): 65% | % visual injury, Obs ([18]; LAMPU, applied alone, 560 g/ha): 10% | % visual injury (Obs) ([19]; BRSNW, alone 280 g/ha): 63% | plant injury at 560 g/ha ([19]; Brassica napus, post-emergence, BRSNW, applied alone, 560 g/ha, read-out: % visual injury, Obs): 75% | % visual injury, Obs ([20]; applied alone, 560 g/ha): 30% | % visual injury, Obs ([4]; VIOTR, applied alone, 560 g/ha): 65% | % visual injury (Obs) ([5]; POLCO): 10% | % visual injury, Obs ([5]; POLCO, applied alone, 560 g/ha): 20% | % visual injury (Obs) ([21]; alone 280 g/ha): 18% | % visual injury, Obs ([21]; applied alone, 560 g/ha): 10% | % visual injury, Obs ([22]; applied alone, 560 g/ha): 100% | % visual injury, Obs ([23]; applied alone, 560 g/ha): 50% | % visual injury, Obs ([24]; applied alone, 560 g/ha): 10% | % visual injury (Obs) ([25]; CHEAL, alone 280 g/ha): 73% | % visual injury (Obs) ([6]; HORVS): 0% | % visual injury, Obs ([6]; HORVS, applied alone, 560 g/ha): 0% | % visual injury, Obs ([26]; applied alone, 560 g/ha): 30% | % visual injury (Obs) ([27]; AMARE, alone 280 g/ha): 58%

CCCCC(CC)COC(=O)COc1ccc(Cl)cc1Cl [2,4-D-EHE, 2,4-D-2-ethylhexyl, reference compound]
visual injury, Obs [7, 28]: 60% | visual injury, Obs [10, 28]: 85% | visual injury, Obs ([11]; VERPE, partner herbicide 560 g/ha alone): 65% | visual injury, Obs [12, 28]: 70% | visual injury, Obs [13, 28]: 60% | % visual injury (crop phytotoxicity) [1, 29]: 0% | visual injury, Obs [2, 28]: 65% | CIRAR % visual injury Obs ([14]; 2,4-D-EHE 280 g/ha (Table 36)): 45% | visual injury, Obs ([14]; CIRAR, partner herbicide 560 g/ha alone): 65% | visual injury, Obs [15, 28]: 60% | visual injury, Obs [16, 28]: 70% | visual injury, Obs [17, 28]: 10% | visual injury, Obs ([18]; LAMPU, partner herbicide 560 g/ha alone): 20% | BRSNW % visual injury Obs ([19]; 2,4-D-EHE 280 g/ha (Table 36)): 65% | BRSNW Δ (Obs minus Exp) ([19]; 2,4-D-EHE 280 g/ha (Table 36)): 3% | visual injury, Obs ([19]; BRSNW, partner herbicide 560 g/ha alone): 100% | visual injury, Obs [20, 28]: 50% | visual injury, Obs ([4]; VIOTR, partner herbicide 560 g/ha alone): 65% | POLCO % visual injury Obs ([5]; 2,4-D-EHE 280 g/ha (Table 36)): 23% | POLCO Δ (Obs minus Exp) ([5]; 2,4-D-EHE 280 g/ha (Table 36)): 11% | visual injury, Obs ([5]; POLCO, partner herbicide 560 g/ha alone): 30% | visual injury, Obs [21, 28]: 10% | visual injury, Obs [22, 28]: 100% | visual injury, Obs [23, 28]: 65% | visual injury, Obs [24, 28]: 5% | % visual injury [25, 29]: 75% | visual injury, Obs [26, 28]: 10% | AMARE % visual injury Obs ([27]; 2,4-D-EHE 280 g/ha (Table 36)): 45% | % visual injury [27, 29]: 70%

O=C(O)c1c(Cl)ccc2cc(Cl)cnc12 [Quinclorac, quinclorac, reference compound]
pest or weed control ([7]; Viola arvensis, post-emergence, Quinclorac 560 g/ha, read-out: % visual injury Obs): 30% | % visual injury Obs ([8]; Quinclorac 560 g/ha): 0% | % visual injury Obs ([9]; Quinclorac 560 g/ha): 0% | pest or weed control ([10]; Mutarda arvensis, post-emergence, Quinclorac 560 g/ha, read-out: % visual injury Obs): 10% | pest or weed control ([11]; Veronica persica, post-emergence, VERVE, Quinclorac 560 g/ha, read-out: % visual injury Obs): 50% | pest or weed control ([12]; Veronica hederifolia, post-emergence, Quinclorac 560 g/ha, read-out: % visual injury Obs): 30% | pest or weed control ([13]; Anthemis arvensis, post-emergence, Quinclorac 560 g/ha, read-out: % visual injury Obs): 0% | % visual injury Obs ([1]; TRZAS, Quinclorac 560 g/ha): 0% | % visual injury (crop phytotoxicity) [1, 30]: 0% | pest or weed control ([2]; Bassia scoparia, post-emergence, Quinclorac 560 g/ha, read-out: % visual injury Obs): 10% | pest or weed control ([14]; Cirsium arvense, post-emergence, CIRAR, Quinclorac 560 g/ha, read-out: % visual injury Obs): 30% | pest or weed control [15, 31]: 10% | pest or weed control ([16]; Capsella bursa-pastoris, post-emergence, Quinclorac 560 g/ha, read-out: % visual injury Obs): 0% | pest or weed control ([17]; Tripleurospermum inodorum, post-emergence, Quinclorac 560 g/ha, read-out: % visual injury Obs): 0% | pest or weed control at 560 g/ha ([18]; Lamium purpureum, post-emergence, read-out: % visual injury Obs): 10% | plant injury ([19]; Brassica napus, post-emergence, BRSNW, Quinclorac 560 g/ha, read-out: % visual injury Obs): 10% | pest or weed control [20, 31]: 50% | pest or weed control at 560 g/ha ([4]; Viola tricolor, post-emergence, read-out: % visual injury Obs): 10% | pest or weed control ([5]; Fallopia convolvulus, post-emergence, POLCO, Quinclorac 560 g/ha, read-out: % visual injury Obs): 10% | pest or weed control ([21]; Matricaria chamomilla, post-emergence, Quinclorac 560 g/ha, read-out: % visual injury Obs): 10% | pest or weed control ([22]; Centaurea cyanus, post-emergence, Quinclorac 560 g/ha, read-out: % visual injury Obs): 60% | pest or weed control ([23]; Salsola kali, post-emergence, Quinclorac 560 g/ha, read-out: % visual injury Obs): 10% | pest or weed control ([24]; Matricaria discoidea, post-emergence, Quinclorac 560 g/ha, read-out: % visual injury Obs): 0% | % visual injury [25, 30]: 0% | % visual injury Obs ([6]; HORVS, Quinclorac 560 g/ha): 0% | % visual injury (crop phytotoxicity) ([6]; c1-2 Compound A 7.5/10, c3 Quinclorac 140, c4-5 A 7.5/10 + Quinclorac 140 g/ha): 5% | pest or weed control ([26]; Stellaria media, post-emergence, Quinclorac 560 g/ha, read-out: % visual injury Obs): 5% | % visual injury [27, 30]: 0%

O=C(O)COc1ccc(Cl)cc1Cl [2,4-D Choline, 2,4-D choline, reference compound]
% visual injury, Obs (crop phytotoxicity) ([1]; Triticum aestivum (spring wheat, TRZAS), in vivo): 0% | % visual injury, Obs ([3]; in vivo): 80% | % visual injury, Obs (crop phytotoxicity) ([6]; Hordeum vulgare (spring barley, HORVS), in vivo): 0%
